Laboratory results reported in patent publication US9833497B2, “Human originated EGF domain proteins and use of the same” (CHENGDU SOURCEBIO LIMITED-LIABILITY COMPANY, priority 2013, dated 2017).

Experiments:
Type in all cases: cell-based
Enterobacter cloacae = experiment: MIC against Gram-negative bacteria: Enterobacter cloacae; conditions: for MIC / MIC (μg/mL) E. cloacae: E. cloacae
Method in brief: (§1)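 MIC = lowest concentration of recombinant protein showing no growth. Test proteins: purified human-derived EGF domain proteins, two-fold dilution series, three wells per concentration; inoculum 5×10^5 CFU/mL in LB; incubation 37° C with shaking at 175 rpm.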

Citrobacter diversus = experiment: MIC against Gram-negative bacteria: Citrobacter diversus; conditions: for MIC / MIC (μg/mL) C. diversus: C. diversus
Method in brief: as §1

Moraxella catarrhalis = experiment: MIC against Gram-negative bacteria: Moraxella catarrhalis; conditions: for MIC / MIC (μg/mL) M. catarrhalis: M. catarrhalis
Method in brief: as §1

Klebsiella pneumonia = experiment: MIC against Gram-negative bacteria: Klebsiella pneumonia; conditions: for MIC / MIC (μg/mL) K. pneumonia: K. pneumonia
Method in brief: as §1

Serratia marcescens = experiment: MIC against Gram-negative bacteria: Serratia marcescens; conditions: for MIC / MIC (μg/mL) S. marcescens: S. marcescens
Method in brief: as §1

E. coli DH5α = experiment: Antibacterial activity: MIC and growth curve against E. coli DH5α in 96-well plate; conditions: minimal inhibitory concentration against E. coli DH5α; 96-well plate, 5×10^5 CFU/mL, 37° C., judged after 8 h
Method in brief: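 Log-phase DH5α (OD600 about 0.5, 37° C, 185 rpm in LB) was pelleted, resuspended in fresh LB and seeded at 5×10^5 CFU/mL with recombinant protein at 50, 25 and 12.5 μg/mL (two-fold series), in triplicate. Plates were shaken at 175 rpm, 37° C, and OD600 was read every 30 min. MIC was the lowest concentration with no growth.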

Aeromonas hydrophila = experiment: MIC against Gram-negative bacteria: Aeromonas hydrophila; conditions: for MIC / MIC (μg/mL) A. hydrophila: A. hydrophila
Method in brief: as §1

E. coli BL21 = experiment: MIC against Gram-negative bacteria: E. coli BL21
Method in brief: as §1

Proteus mirabilis = experiment: MIC against Gram-negative bacteria: Proteus mirabilis; conditions: for MIC / MIC (μg/mL) P. mirabilis: P. mirabilis
Method in brief: as §1

Proteus vulgaris = experiment: MIC against Gram-negative bacteria: Proteus vulgaris; conditions: for MIC / MIC (μg/mL) P. vulgaris: P. vulgaris
Method in brief: as §1

Pseudomonas aeruginosa = experiment: MIC against Gram-negative bacteria: Pseudomonas aeruginosa; conditions: for MIC / MIC (μg/mL) P. aeruginosa: P. aeruginosa
Method in brief: as §1

[1] = E. coli BL21, 10 h cultivation at 37° C.
[2] = 10 h cultivation at 37° C., 5×10^5 CFU/mL
[3] = E. coli BL21, 10 h cultivation at 37° C., 5×10^5 CFU/mL
[4] = 10 h cultivation at 37° C., 5×10^5 CFU/mL, two-fold serial dilution
[5] = 96-well plate, 5×10^5 CFU/mL, 37° C., 10 h

PRT1009 (DVDECLDQPCHPTGTAACHSLANAFYCQCLPGHTGQWCE; listed as Homo sapiens)
MIC (Enterobacter cloacae; 10 h cultivation at 37° C.): 50 µg/mL | MIC (Citrobacter diversus; 10 h cultivation at 37° C.): 12.5 µg/mL | MIC (Moraxella catarrhalis; 10 h cultivation at 37° C.): 25 µg/mL | MIC (Klebsiella pneumonia; 10 h cultivation at 37° C.): 12.5 µg/mL | MIC (Serratia marcescens; 10 h cultivation at 37° C.): 100 µg/mL | MIC (E. coli DH5α): 25 µg/mL | MIC (Aeromonas hydrophila; 10 h cultivation at 37° C.): 25 µg/mL | MIC (E. coli BL21; [1]): 12.5 µg/mL | MIC (Proteus mirabilis; 10 h cultivation at 37° C.): 50 µg/mL | MIC (Proteus vulgaris; 10 h cultivation at 37° C.): 25 µg/mL | MIC (Pseudomonas aeruginosa; 10 h cultivation at 37° C.): 50 µg/mL

PRT769 (CNGVDHGCEFQCVSEGLSYRCLCPEGRQLQADGKSC; listed as Homo sapiens)
MIC (μg/mL) E. cloacae (Enterobacter cloacae; [2]): 12.5 µg/mL | MIC (μg/mL) C. diversus (Citrobacter diversus; [2]): 12.5 µg/mL | MIC (μg/mL) M. catarrhalis (Moraxella catarrhalis; [2]): 12.5 µg/mL | MIC (μg/mL) K. pneumonia (Klebsiella pneumonia; [2]): 25 µg/mL | MIC (μg/mL) S. marcescens (Serratia marcescens; [2]): 12.5 µg/mL | MIC (E. coli DH5α): 12.5 µg/mL | MIC (μg/mL) A. hydrophila (Aeromonas hydrophila; [2]): 25 µg/mL | MIC (μg/mL) E. coli BL21 (E. coli BL21; [3]): 12.5 µg/mL | MIC (μg/mL) P. mirabilis (Proteus mirabilis; [2]): 12.5 µg/mL | MIC (μg/mL) P. vulgaris (Proteus vulgaris; [2]): 25 µg/mL | MIC (μg/mL) P. aeruginosa (Pseudomonas aeruginosa; [2]): 12.5 µg/mL

PRT1113 (HVDPCHSAPCARGRCHTHPDGRFECRCPPGFGGPRCR; listed as Homo sapiens)
MIC E. cloacae (Enterobacter cloacae; [4]): 12.5 µg/mL | MIC C. diversus (Citrobacter diversus; [4]): 50 µg/mL | MIC M. catarrhalis (Moraxella catarrhalis; [4]): 12.5 µg/mL | MIC K. pneumonia (Klebsiella pneumonia; [4]): 12.5 µg/mL | MIC S. marcescens (Serratia marcescens; [4]): 25 µg/mL | MIC (E. coli DH5α): 12.5 µg/mL | MIC A. hydrophila (Aeromonas hydrophila; [4]): 12.5 µg/mL | MIC E. coli BL21 (E. coli BL21; [4]): 12.5 µg/mL | MIC P. mirabilis (Proteus mirabilis; [4]): 25 µg/mL | MIC P. vulgaris (Proteus vulgaris; [4]): 50 µg/mL | MIC P. aeruginosa (Pseudomonas aeruginosa; [4]): 12.5 µg/mL

PRT1337 (QTSACGPYVQFCHIHATCEYSNGTASCICKAGYEGDGTLCS; listed as Homo sapiens)
MIC against E. cloacae (Enterobacter cloacae; Enterobacter cloacae, 96-well plate, 5×10^5 CFU/mL, 37° C., 10 h): 50 µg/mL | MIC against C. diversus (Citrobacter diversus; Citrobacter diversus, 96-well plate, 5×10^5 CFU/mL, 37° C., 10 h): 25 µg/mL | MIC against M. catarrhalis (Moraxella catarrhalis; Moraxella catarrhalis, 96-well plate, 5×10^5 CFU/mL, 37° C., 10 h): 12.5 µg/mL | MIC against K. pneumonia (Klebsiella pneumonia; Klebsiella pneumonia, 96-well plate, 5×10^5 CFU/mL, 37° C., 10 h): 25 µg/mL | MIC against S. marcescens (Serratia marcescens; Serratia marcescens, 96-well plate, 5×10^5 CFU/mL, 37° C., 10 h): 12.5 µg/mL | MIC (E. coli DH5α): 12.5 µg/mL | MIC against A. hydrophila (Aeromonas hydrophila; Aeromonas hydrophila, 96-well plate, 5×10^5 CFU/mL, 37° C., 10 h): 25 µg/mL | MIC against E. coli BL21 (E. coli BL21; E. coli BL21, 96-well plate, 5×10^5 CFU/mL, 37° C., 10 h): 50 µg/mL | MIC against P. mirabilis (Proteus mirabilis; Proteus mirabilis, 96-well plate, 5×10^5 CFU/mL, 37° C., 10 h): 25 µg/mL | MIC against P. vulgaris (Proteus vulgaris; Proteus vulgaris, 96-well plate, 5×10^5 CFU/mL, 37° C., 10 h): 50 µg/mL | MIC against P. aeruginosa (Pseudomonas aeruginosa; Pseudomonas aeruginosa, 96-well plate, 5×10^5 CFU/mL, 37° C., 10 h): 12.5 µg/mL

PRT244 (TCAMINCQYSCEDTEEGPQCLCPSSGLRLAPNGRDCL; listed as Homo sapiens)
MIC (μg/mL) E. cloacae (Enterobacter cloacae; [2]): 12.5 µg/mL | MIC (μg/mL) C. diversus (Citrobacter diversus; [2]): 12.5 µg/mL | MIC (μg/mL) M. catarrhalis (Moraxella catarrhalis; [2]): 25 µg/mL | MIC (μg/mL) K. pneumonia (Klebsiella pneumonia; [2]): 12.5 µg/mL | MIC (μg/mL) S. marcescens (Serratia marcescens; [2]): 12.5 µg/mL | MIC (E. coli DH5α): 50 µg/mL | MIC (μg/mL) A. hydrophila (Aeromonas hydrophila; [2]): 25 µg/mL | MIC (μg/mL) E. coli BL21 (E. coli BL21; [3]): 12.5 µg/mL | MIC (μg/mL) P. mirabilis (Proteus mirabilis; [2]): 12.5 µg/mL | MIC (μg/mL) P. vulgaris (Proteus vulgaris; [2]): 25 µg/mL | MIC (μg/mL) P. aeruginosa (Pseudomonas aeruginosa; [2]): 12.5 µg/mL

PRT1145 (KINDCTSIPCMNEGFCQKSAHGFTCICPRGYTGAYCE; listed as Homo sapiens)
MIC E. cloacae (Enterobacter cloacae; [4]): 12.5 µg/mL | MIC C. diversus (Citrobacter diversus; [4]): 12.5 µg/mL | MIC M. catarrhalis (Moraxella catarrhalis; [4]): 12.5 µg/mL | MIC K. pneumonia (Klebsiella pneumonia; [4]): 12.5 µg/mL | MIC S. marcescens (Serratia marcescens; [4]): 12.5 µg/mL | MIC (E. coli DH5α): 12.5 µg/mL | MIC A. hydrophila (Aeromonas hydrophila; [4]): 12.5 µg/mL | MIC E. coli BL21 (E. coli BL21; [4]): 25 µg/mL | MIC P. mirabilis (Proteus mirabilis; [4]): 50 µg/mL | MIC P. vulgaris (Proteus vulgaris; [4]): 25 µg/mL | MIC P. aeruginosa (Pseudomonas aeruginosa; [4]): 12.5 µg/mL

PRT1133 (KAGPCEQAGSPCRNGGQCQDDQGFALNFTCRCLVGFVGARCE; listed as Homo sapiens)
MIC E. cloacae (Enterobacter cloacae; [4]): 25 µg/mL | MIC C. diversus (Citrobacter diversus; [4]): 12.5 µg/mL | MIC M. catarrhalis (Moraxella catarrhalis; [4]): 25 µg/mL | MIC K. pneumonia (Klebsiella pneumonia; [4]): 12.5 µg/mL | MIC S. marcescens (Serratia marcescens; [4]): 12.5 µg/mL | MIC (E. coli DH5α): 12.5 µg/mL | MIC A. hydrophila (Aeromonas hydrophila; [4]): 25 µg/mL | MIC E. coli BL21 (E. coli BL21; [4]): 12.5 µg/mL | MIC P. mirabilis (Proteus mirabilis; [4]): 12.5 µg/mL | MIC P. vulgaris (Proteus vulgaris; [4]): 25 µg/mL | MIC P. aeruginosa (Pseudomonas aeruginosa; [4]): 12.5 µg/mL

PRT1084 (HLVKCAEKEKTFCVNGGECFMVKDLSNPSRYLCKCQPGFTGARCT; listed as Homo sapiens)
MIC E. cloacae (Enterobacter cloacae; [4]): 50 µg/mL | MIC C. diversus (Citrobacter diversus; [4]): 12.5 µg/mL | MIC M. catarrhalis (Moraxella catarrhalis; [4]): 25 µg/mL | MIC K. pneumonia (Klebsiella pneumonia; [4]): 50 µg/mL | MIC S. marcescens (Serratia marcescens; [4]): 12.5 µg/mL | MIC (E. coli DH5α): 50 µg/mL | MIC A. hydrophila (Aeromonas hydrophila; [4]): 12.5 µg/mL | MIC E. coli BL21 (E. coli BL21; [4]): 12.5 µg/mL | MIC P. mirabilis (Proteus mirabilis; [4]): 12.5 µg/mL | MIC P. vulgaris (Proteus vulgaris; [4]): 25 µg/mL | MIC P. aeruginosa (Pseudomonas aeruginosa; [4]): 50 µg/mL

PRT151 (GCKYLSDINITRYNINCRENRACNELFHCQCDPGYAPPDCE; listed as Homo sapiens)
MIC (μg/mL) E. cloacae (Enterobacter cloacae; [2]): 12.5 µg/mL | MIC (μg/mL) C. diversus (Citrobacter diversus; [2]): 25 µg/mL | MIC (μg/mL) M. catarrhalis (Moraxella catarrhalis; [2]): 12.5 µg/mL | MIC (μg/mL) K. pneumonia (Klebsiella pneumonia; [2]): 50 µg/mL | MIC (μg/mL) S. marcescens (Serratia marcescens; [2]): 12.5 µg/mL | MIC (E. coli DH5α): 12.5 µg/mL | MIC (μg/mL) A. hydrophila (Aeromonas hydrophila; [2]): 50 µg/mL | MIC (μg/mL) E. coli BL21 (E. coli BL21; [3]): 50 µg/mL | MIC (μg/mL) P. mirabilis (Proteus mirabilis; [2]): 25 µg/mL | MIC (μg/mL) P. vulgaris (Proteus vulgaris; [2]): 50 µg/mL | MIC (μg/mL) P. aeruginosa (Pseudomonas aeruginosa; [2]): 12.5 µg/mL

PRT696 (DVDECTQSPGLCGRGACKNLPGSFRCVCPAGFRGSACE; listed as Homo sapiens)
MIC E. cloacae (Enterobacter cloacae; [5]): 25 µg/mL | MIC C. diversus (Citrobacter diversus; [5]): 25 µg/mL | MIC M. catarrhalis (Moraxella catarrhalis; [5]): 25 µg/mL | MIC K. pneumonia (Klebsiella pneumonia; [5]): 50 µg/mL | MIC S. marcescens (Serratia marcescens; [5]): 12.5 µg/mL | MIC (E. coli DH5α): 50 µg/mL | MIC A. hydrophila (Aeromonas hydrophila; [5]): 12.5 µg/mL | MIC E. coli BL21 (E. coli BL21; [5]): 25 µg/mL | MIC P. mirabilis (Proteus mirabilis; [5]): 50 µg/mL | MIC P. vulgaris (Proteus vulgaris; [5]): 25 µg/mL | MIC P. aeruginosa (Pseudomonas aeruginosa; [5]): 12.5 µg/mL

PRT933 (HRDPCEKNRCQNGGTCVAQAMLGKATCRCASGFTGEDCQ; listed as Homo sapiens)
MIC (Enterobacter cloacae; 10 h cultivation at 37° C.): 25 µg/mL | MIC (Citrobacter diversus; 10 h cultivation at 37° C.): 25 µg/mL | MIC (Moraxella catarrhalis; 10 h cultivation at 37° C.): 50 µg/mL | MIC (Klebsiella pneumonia; 10 h cultivation at 37° C.): 50 µg/mL | MIC (Serratia marcescens; 10 h cultivation at 37° C.): 50 µg/mL | MIC (E. coli DH5α): 12.5 µg/mL | MIC (Aeromonas hydrophila; 10 h cultivation at 37° C.): 12.5 µg/mL | MIC (E. coli BL21; [1]): 25 µg/mL | MIC (Proteus mirabilis; 10 h cultivation at 37° C.): 25 µg/mL | MIC (Proteus vulgaris; 10 h cultivation at 37° C.): 12.5 µg/mL | MIC (Pseudomonas aeruginosa; 10 h cultivation at 37° C.): 12.5 µg/mL
